Data taken from patent publication US12110293B2, “Substituted triazolo quinoxaline derivatives” (GRÜNENTHAL GMBH, priority 2018, dated 2024).

Target: T1, glucocorticoid receptor (Homo sapiens, UniProt P04150)
T1 construct: expressed in transfected cells
T1 sequence (P04150 524-758 limits assumed): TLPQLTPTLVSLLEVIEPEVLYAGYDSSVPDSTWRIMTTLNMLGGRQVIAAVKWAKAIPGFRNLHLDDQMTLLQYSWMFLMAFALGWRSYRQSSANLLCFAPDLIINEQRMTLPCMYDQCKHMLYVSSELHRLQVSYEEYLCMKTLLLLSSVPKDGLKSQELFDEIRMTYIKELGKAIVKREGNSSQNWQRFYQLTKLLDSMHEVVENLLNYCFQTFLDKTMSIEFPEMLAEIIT
Assay: Agonistic mode of action on the glucocorticoid receptor (CHO-Gal4/GR luciferase reporter cell line)
Type: cell-based
Conditions: range class observed in the agonistic assay or the antagonistic assay (CHO-Gal4/GR reporter cells); table does not say which mode applies per example
Summary of the method: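 CHO cells stably carrying GAL4 DBD–GR ligand-binding-domain fusion and GAL4-UAS firefly luciferase reporter, 5000 cells/well grown 24 h, then compounds added in Opti-MEM at 8 half-log concentrations from 10 μM to 0.003 μM (0.5% DMSO), quadruplicates. Agonist-induced luminescence read on FLIPR Tetra; EC50 calculated.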

| Compound | IC50 or EC50 (agonist or antagonist mode not specified) |
| --- | --- |
| Cc1c(-c2cc(F)cc3c(C)c[nH]c23)c(F)cc2c1-n1c(C)nnc1C(C)(C)N2 [Example 31, 7-fluoro-8-(5-fluoro-3-methyl-1H-indol-7-yl)-1,4,4,9-tetramethyl-4,5-dihydro-[1,2,4]triazolo[4,3-a]quinoxaline] | < 100 nM |
| CCc1c(-c2cc(F)cc3c2ccn3CCO)c(F)cc2c1-n1c(C)nnc1C(C)(C)N2 [Example 44, 2-(4-(9-ethyl-7-fluoro-1,4,4-trimethyl-4,5-dihydro-[1,2,4]triazolo[4,3-a]quinoxalin-8-yl)-6-fluoro-1H-indol-1-yl)ethanol] | 100 to 1000 nM |
| Cc1nnc2n1-c1c(cc(F)c(-c3cc(F)cc4c3ccn4C3CC3)c1C(F)(F)F)NC2(C)C [Example 88, 8-(1-Cyclopropyl-6-fluoro-1H-indol-4-yl)-7-fluoro-1,4,4-trimethyl-9-(trifluoromethyl)-5H-[1,2,4]triazolo[4,3-a]quinoxaline] | < 100 nM |
| COCCn1ccc2c(-c3c(OC)cc4c(c3C(F)(F)F)-n3c(C)nnc3C(C)(C)N4)cccc21 [Example 334, 7-Methoxy-8-[1-(2-methoxy-ethyl)-1H-indol-4-yl]-1,4,4-trimethyl-9-(trifluoromethyl)-5H-[1,2,4]triazolo[4,3-a]quinoxaline] | 1000 to 15000 nM |
| COc1c(-c2cc(F)cc3c(C4CC4)c[nH]c23)c(F)cc2c1-n1c(C)nnc1C(C)(C)N2 [Example 483, 8-(3-Cyclopropyl-5-fluoro-1H-indol-7-yl)-7-fluoro-9-methoxy-1,4,4-trimethyl-5H-[1,2,4]triazolo[4,3-a] quinoxaline] | < 100 nM |
| Cc1nnc2n1-c1c(cc(F)c(-c3cccc4[nH]ccc34)c1C(F)(F)F)NC2(C)C [Example 467, 7-Fluoro-8-(1H-indol-4-yl)-1,4,4-trimethyl-9-(trifluoromethyl)-5H-[1,2,4]triazolo[4,3-a]quinoxaline] | < 100 nM |
| Cc1nnc2n1-c1c(cc(F)c(-c3cc(C(F)(F)F)cc4[nH]ccc34)c1C(F)(F)F)NC2(C)C [Example 473, 7-Fluoro-1,4,4-trimethyl-9-(trifluoromethyl)-8-[6-(trifluoromethyl)-1H-indol-4-yl]-5H-[1,2,4]triazolo[4,3-a] quinoxaline] | 100 to 1000 nM |
| CCS(=O)(=O)n1ccc2c(-c3c(F)cc4c(c3C(F)F)-n3c(C)nnc3C(C)(C)N4)cccc21 [Example 461, 9-(Difluoro-methyl)-8-[1-(ethylsulfonyl)-1H-indol-4-yl]-7-fluoro-1,4,4-trimethyl-5H-[1,2,4] triazolo[4,3-a]quinoxaline] | < 100 nM |
| Cc1cc(-c2c(F)cc3c(c2C)-n2c(C)nnc2C(C)(C)N3)c2ccn(S(C)(=O)=O)c2c1 [Example 493, 7-Fluoro-1,4,4,9-tetramethyl-8-(6-methyl-1-methylsulfonyl-1H-indol-4-yl)-5H-[1,2,4]triazolo[4,3-a] quinoxaline] | < 100 nM |
| Cc1nnc2n1-c1c(cc(F)c(-c3cccc4[nH]ccc34)c1F)NC2(C)C [Example 445, 7,9-Difluoro-8-(1H-indol-4-yl)-1,4,4-trimethyl-5H-[1,2,4] triazolo[4,3-a]quinoxaline] | < 100 nM |
| Cc1nnc2n1-c1c(cc(F)c(-c3cccc4c3cc(C(F)(F)F)n4S(C)(=O)=O)c1F)NC2(C)C [Example 271, 7,9-Difluoro-1,4,4-trimethyl-8-[1-methylsulfonyl-2-(trifluoromethyl)-1H-indol-4-yl]-5H-[1,2,4]triazolo [4,3-a]quinoxaline] | 1000 to 15000 nM |
| Cc1c(-c2cccc3c(C)c[nH]c23)c(Cl)cc2c1-n1c(C)nnc1C(C)(C)N2 [Example 358, 7-Chloro-1,4,4,9-tetramethyl-8-(3-methyl-1H-indol-7-yl)-5H-[1,2,4]triazolo[4,3-a]quinoxaline] | < 100 nM |
